System: Rattus norvegicus
[1] = reproduction developmental, duration: 28 days, inhalation, M, Wistar, generation: P0, P0: Whole Body: Body Weight Change
[2] = short-term, duration: 28 days, inhalation, F, Wistar, Kidney: Creatinine (CREAT)
[3] = short-term, duration: 28 days, inhalation, F, Wistar, Kidney: Creatinine (CREAT) + Multi-Organ: Gamma-Glutamyl Transferase (GGT)
[4] = short-term, duration: 28 days, inhalation, F, Wistar, Kidney: Fluoride, Total Urinary Excretion + Kidney: Fluoride, Urine + Kidney: Urinary Fluoride/Creatinine Ratio + Liver: Liver Weight, …
[5] = short-term, duration: 28 days, inhalation, F, Wistar, Liver: Liver Weight, Absolute + Liver: Liver Weight, Relative + Lung: Lung Histopathology + Lung: Lung Weight, Absolute + Lung: Lung Weight…
[6] = short-term, duration: 28 days, inhalation, F, Wistar, Liver: Total Bilirubin (TBILI)
[7] = short-term, duration: 28 days, inhalation, M, Wistar, Kidney: Creatinine (CREAT) + Whole Body: Body Weight Change + Whole Body: Food Conversion Efficiency + Whole Body: Food Intake
[8] = short-term, duration: 28 days, inhalation, M, Wistar, Kidney: Fluoride, Total Urinary Excretion + Kidney: Fluoride, Urine + Kidney: Urinary Fluoride/Creatinine Ratio + Lung: Lung Histopathology…
[9] = short-term, duration: 28 days, inhalation, M, Wistar, Liver: Albumin (A) + Liver: Triglycerides (TRIG) + Multi-Organ: Cholesterol, Total + Multi-organ: Glucose (GLU)
[10] = short-term, duration: 28 days, inhalation, M, Wistar, Liver: Albumin (A) + Multi-Organ: Glucose (GLU) + Renal: Fluoride, Total Urinary Excretion + Renal: Fluoride, Urine + Renal: Fluoride/…
[11] = short-term, duration: 28 days, inhalation, M, Wistar, Lung: Lung Histopathology + Lung: Lung Weight, Absolute + Lung: Lung Weight, Relative + Spleen: Spleen Weight, Absolute + Spleen: Spleen …
[12] = short-term, duration: 28 days, inhalation, M, Wistar, Whole Body: Body Weight Change
[13] = subchronic, duration: 91 days, inhalation, F, Wistar, Blood: Albumin/Globulin (A/G) Ratio + Liver: Liver Weight, Relative + Multi-Organ: Acyl-CoA Oxidase Activity
[14] = subchronic, duration: 91 days, inhalation, F, Wistar, Kidney: Kidney Weight, Relative + Liver: Albumin (A)
[15] = subchronic, duration: 91 days, inhalation, M, Wistar, Blood: Mean Corpuscular Hemoglobin (MCH) + Liver: Albumin (A) + Liver: Alkaline Phosphatase (ALP) + Liver: Cholesterol (CHOL), Total + Liver…
[16] = subchronic, duration: 91 days, inhalation, M, Wistar, Blood: Mean Corpuscular Hemoglobin (MCH), Recovery + Blood: Mean Corpuscular Volume (MCV) + Blood: Platelet Count (PLT), Recovery + Blood: …
[17] = reproduction developmental, duration: 4 weeks, oral, gavage, M, Rjhan:SD, generation: P0, P0: Whole Body: Clinical Observations
[18] = reproduction developmental, duration: 4 weeks, oral, gavage, M, Sprague-Dawley, generation: P0, P0: General Toxicity: Whole Body: Body Weight + P0: General Toxicity: Whole Body: Clinical Observations + P0: General Toxicity: Whole Body: …
[19] = reproduction developmental, duration: 6 weeks, oral, gavage, F, Rjhan:SD, generation: P0, P0: Whole Body: Clinical Observations
[20] = reproduction developmental, duration: 54 days, oral, gavage, F, Sprague-Dawley, generation: P0, P0: General Toxicity: Whole Body: Body Weight + P0: General Toxicity: Whole Body: Clinical Observations + P0: General Toxicity: Whole Body: …

O=C(C(F)(F)C(F)(F)F)C(F)(C(F)(F)F)C(F)(F)F [Perfluoro-2-methyl-3-pentanone]
NOAEL (developmental, duration: 13 days, inhalation, M/F, Sprague-Dawley, generation: F1, F1: Uterus: Resorptions, Early + F1: Uterus: Resorptions, Late + F1: Whole Body: Fetal Alterations, Total): 38800 mg/m3
NOAEL (reproduction developmental, duration: 4 days, inhalation, F, Wistar, generation: F1, F1: Whole Body: Body Weight Change + F1: Whole Body: Body Weight, Absolute + F1: Whole Body: Clinical Observations + F1: Whole Body: Live …): 38800 mg/m3
NOAEL (reproduction developmental, duration: 4 days, inhalation, F, Wistar, generation: P0, P0: Uterus: Estrous Cycle + P0: Whole Body: Body Weight Change + P0: Whole Body: Body Weight, Absolute + P0: Whole Body: Clinical …): 38800 mg/m3
NOAEL (reproduction developmental, duration: 13 days, inhalation, F, Sprague-Dawley, generation: P0, P0: Ovary: Corpora Lutea + P0: Ovary: Ovary, Necropsy + P0: Placenta: Normal Placenta + P0: Uterus: Implantation + P0: Uterus: Uterine …): 38800 mg/m3
NOAEL (reproduction developmental, duration: 28 days, inhalation, M, Wistar, generation: P0, P0: Epididymis: Epididymis Weight, Absolute + P0: Testis: Testis Weight, Absolute + P0: Whole Body: Body Weight, Absolute + P0: Whole Body: …): 38800 mg/m3
LOAEL [1]: 12900 mg/m3
NOAEL [1]: 3880 mg/m3
NOAEL (short-term, duration: 28 days, inhalation, F, Wistar, Adrenal: Adrenal Gland Histopathology + Bladder: Urinary Bladder Histopathology + Blood: Albumin/Globulin (A/G) Ratio + Blood: Hematocrit (…): 259000 mg/m3
NOAEL (short-term, duration: 28 days, inhalation, F, Wistar, Blood: Albumin/Globulin (A/G) Ratio + Blood: Hematology, Unspecified + Liver: Albumin (A) + Liver: Liver Histopathology + Multi-Organ: …): 245000 mg/m3
LOAEL [2]: 259000 mg/m3
NOAEL [2]: 129000 mg/m3
LOAEL [3]: 245000 mg/m3
NOAEL [3]: 125000 mg/m3
LOAEL [4]: 125000 mg/m3
NOAEL [4]: 49600 mg/m3
LOAEL [5]: 129000 mg/m3
NOAEL [5]: 51700 mg/m3
LOAEL (short-term, duration: 28 days, inhalation, F, Wistar, Liver: Peroxisome Induction + Liver: Phospholipid + Liver: Triglycerides (TRIG) + Spleen: Spleen Weight, Absolute + Spleen: Spleen Weight, …): 12900 mg/m3
LOAEL (short-term, duration: 28 days, inhalation, F, Wistar, Liver: Peroxisome Induction + Liver: Phospholipid + Spleen: Spleen Weight, Absolute + Spleen: Spleen Weight, Relative): 12400 mg/m3
LOAEL [6]: 51700 mg/m3
NOAEL [6]: 12900 mg/m3
NOAEL (short-term, duration: 28 days, inhalation, M, Wistar, Adrenal: Adrenal Gland Histopathology + Bladder: Urinary Bladder Histopathology + Blood: Hematocrit (HCT) + Blood: Hemoglobin (HGB) + Blood…): 259000 mg/m3
NOAEL (short-term, duration: 28 days, inhalation, M, Wistar, Blood: Albumin/Globulin (A/G) Ratio + Blood: Hematology, Unspecified + Kidney: Creatinine (CREAT) + Liver: Phospholipid + Multi-Organ: Gamma…): 245000 mg/m3
LOAEL (short-term, duration: 28 days, inhalation, M, Wistar, Blood: Albumin/Globulin (A/G) Ratio + Liver: Liver Histopathology + Liver: Liver Weight, Absolute + Liver: Liver Weight, Relative + Liver: …): 12900 mg/m3
LOAEL [7]: 259000 mg/m3
NOAEL [7]: 129000 mg/m3
LOAEL [8]: 125000 mg/m3
NOAEL [8]: 49600 mg/m3
LOAEL [9]: 49600 mg/m3
NOAEL [9]: 12400 mg/m3
LOAEL [10]: 51700 mg/m3
NOAEL [10]: 12900 mg/m3
LOAEL (short-term, duration: 28 days, inhalation, M, Wistar, Liver: Liver Histopathology + Liver: Liver Weight, Absolute + Liver: Liver Weight, Relative + Liver: Peroxisome Induction): 12400 mg/m3
LOAEL [11]: 129000 mg/m3
NOAEL [11]: 51700 mg/m3
LOAEL [12]: 245000 mg/m3
NOAEL [12]: 125000 mg/m3
LOAEL [13]: 38800 mg/m3
NOAEL [13]: 12900 mg/m3
NOAEL (subchronic, duration: 91 days, inhalation, F, Wistar, Blood: Albumin/Globulin (A/G) Ratio, Recovery + Blood: Mean Corpuscular Hemoglobin (MCH) + Blood: Mean Corpuscular Volume (MCV) + Blood: Red…): 38800 mg/m3
LOAEL [14]: 12900 mg/m3
NOAEL [14]: 3880 mg/m3
LOAEL (subchronic, duration: 91 days, inhalation, F, Wistar, Spleen: Spleen Weight, Absolute): 3880 mg/m3
LOAEL (subchronic, duration: 91 days, inhalation, M, Wistar, Blood: Albumin/Globulin (A/G) Ratio + Kidney: Kidney Weight, Absolute + Kidney: Kidney Weight, Relative + Liver: Liver Weight, Absolute + …): 3880 mg/m3
NOAEL (subchronic, duration: 91 days, inhalation, M, Wistar, Blood: Albumin/Globulin (A/G) Ratio, Recovery + Brain: Brain Weight, Absolute + Brain: Brain Weight, Relative + Eye: Ophthalmology, …): 38800 mg/m3
LOAEL [15]: 12900 mg/m3
NOAEL [15]: 3880 mg/m3
LOAEL [16]: 38800 mg/m3
NOAEL [16]: 12900 mg/m3

O=S(=O)(O)C(F)(F)F [Trifluoromethanesulfonic acid]
LOAEL (developmental, duration: 54 days, oral, gavage, M/F, Sprague-Dawley, generation: F1, F1: Developmental: Whole Body: Dams with Liveborn Pups + F1: Developmental: Whole Body: Lactation Index + F1: Developmental: Whole Body: …): 300 mg/kg-day
NEL (reproduction developmental, duration: 4 weeks, oral, gavage, M, Rjhan:SD, generation: P0, P0: Multi-organ: Histopathology, Unspecified + P0: Multi-organ: Organ Weights, Unspecified + P0: Whole Body: Body Weight, Absolute + P0: …): 1000 mg/kg-day
LEL [17]: 300 mg/kg-day
NEL [17]: 100 mg/kg-day
LOAEL [18]: 300 mg/kg-day
NOAEL [18]: 100 mg/kg-day
NOAEL (reproduction developmental, duration: 4 weeks, oral, gavage, M, Sprague-Dawley, generation: P0, P0: Whole Body: Whole Body: Histopathology, Unspecified): 1000 mg/kg-day
NEL (reproduction developmental, duration: 6 weeks, oral, gavage, F, Rjhan:SD, generation: P0, P0: Multi-organ: Histopathology, Unspecified + P0: Multi-organ: Organ Weights, Unspecified + P0: Ovary: Corpora Lutea + P0: Uterus: …): 1000 mg/kg-day
LEL [19]: 1000 mg/kg-day
NEL [19]: 300 mg/kg-day
NEL (reproduction developmental, duration: 6 weeks, oral, gavage, M/F, Rjhan:SD, generation: F1, F1: Whole Body: Body Weight, Absolute + F1: Whole Body: Clinical Observations + F1: Whole Body: Dams with Liveborn Pups + F1: Whole Body: …): 1000 mg/kg-day
LOAEL (reproduction developmental, duration: 54 days, oral, gavage, F, Sprague-Dawley, generation: P0, P0: Developmental: Uterus: Implantation + P0: Developmental: Uterus: Post-Implantation Loss + P0: Developmental: Uterus: Pre-Implantation …): 300 mg/kg-day
LOAEL [20]: 300 mg/kg-day
NOAEL [20]: 100 mg/kg-day
NEL (short-term, duration: 28 days, oral, gavage, F, Crj:CD, Adrenal: Adrenal Gland Weight, Absolute + Adrenal: Adrenal Gland Weight, Absolute, Recovery + Adrenal: Adrenal Gland Weight, Relative + …): 1000 mg/kg-day
LEL (short-term, duration: 28 days, oral, gavage, F, Crj:CD, Blood: Platelet Count (PLT) + Blood: Total Protein (TP), Blood + Forestomach: Boundary Ridge Protrusion + Kidney: Pyelectasis + Stomach: …): 1000 mg/kg-day
NEL (short-term, duration: 28 days, oral, gavage, F, Crj:CD, Blood: Platelet Count (PLT) + Blood: Total Protein (TP), Blood + Forestomach: Boundary Ridge Protrusion + Stomach: Glandular Stomach, …): 200 mg/kg-day
NEL (short-term, duration: 28 days, oral, gavage, M, Crj:CD, Adrenal: Adrenal Gland Weight, Absolute + Adrenal: Adrenal Gland Weight, Absolute, Recovery + Adrenal: Adrenal Gland Weight, Relative + …): 1000 mg/kg-day
LEL (short-term, duration: 28 days, oral, gavage, M, Crj:CD, Blood: Albumin/Globulin (A/G) Ratio, Recovery + Blood: Calcium (CA), Recovery, Blood + Blood: Chloride (CL), Recovery, Blood + Forestomach: …): 1000 mg/kg-day
NEL (short-term, duration: 28 days, oral, gavage, M, Crj:CD, Forestomach: Boundary Ridge Protrusion): 200 mg/kg-day
